According to PMC9182012, “Aza-Oxa-Triazole Based Macrocycles with Tunable Properties: Design, Synthesis, and Bioactivity” (Molecules, 2022):

What was measured:
[1] = biological target: bovine serum albumin (BSA) (Bos taurus, UniProt P02769); assay: Protein interaction by fluorescence quenching, Stern–Volmer binding constant; details: for Extent of binding with BSA, in words: fluorescence quenching, 10 µM BSA, pH 7.4, 25 °C; for Binding Constant, BSA: slope of Stern–Volmer plot (Io/I vs macrocycle concentration), 10 µM BSA in phosphate buffer pH 7.4, 2–100 µM macrocycle from 2 mM DMSO stock, 25 °C, excitation 280 nm, 3 min equilibration
Experimental: (§1) All the fluorescence spectra were recorded on a Perkin Elmer (Waltham, MA, USA) FL 6500 at 25 °C. The excitation wavelength of 280 nm and a slit width of 5 nm were used for excitation and emission. Next, 6.6 mg of BSA/HSA was dissolved in 10 mL of pH 7.4 phosphate buffer to make 10 μM BSA/HSA. The stock solutions of macrocycles were of 2 mM concentration dissolved in DMSO. The titrations were carried out in varied concentrations of macrocycles from 2 μM to 100 μM. Three minutes were given as the equilibration time after the addition of the solution. The Stern–Volmer plot was used to calculate the binding constant (slope) by plotting Io/I vs. the macrocycle concentration.
(§2) Figure 4 Fluorescence quenching of protein by MC7 at excitation wavelength 280 nm, (a) BSA and (b) HSA. To 10 µM protein solution in phosphate buffer (pH 7.4), 2–100 µM macrocycle solution was added at 25 °C. Inset: Stern–Volmer Plot; Io and I are the fluorescence intensity at 0 µM and the given concentration of the macrocycle, and the slope is considered as the binding constant. […]
(§3) 8.2 Fluorescence spectroscopy for protein interaction studies
(§4) 8.2.1 Experimental Procedure
(§5) 10 μM BSA was prepared by dissolving 6.6 mg of BSA in 10 mL of phosphate buffer of pH
(§6) 7.4. The macrocycles were dissolved in DMSO to make the stock solution of 2 mM concentration. 2 mL of the BSA control solution was taken in the fluorescence cuvette to take the emission at zero concentration of the compound. The titration was carried out by varying the concentration of macrocycle from 2 μM to 100 μM. An equilibration time of 3 minutes is given for each measurement after the addition of the solution. Binding constant were estimated from the Stern-Volmer plot by plotting I o/I vs concentration of the macrocycle. The slope of the graph was attributed as the binding constant.

[2] = biological target: human serum albumin (HSA) (Homo sapiens, UniProt P02768); assay: as above; details: for Binding Constant, HSA: slope of Stern–Volmer plot (Io/I vs macrocycle concentration), 10 µM HSA in phosphate buffer pH 7.4, 2–100 µM macrocycle from 2 mM DMSO stock, 25 °C, excitation 280 nm, 3 min equilibration; for Extent of interaction with HSA, in words: fluorescence quenching, 10 µM HSA, pH 7.4, 25 °C
Experimental: as §1, §2, §3, §4, §5, §6

[3] = RP-HPLC retention time as measure of hydrophilicity/hydrophobicity; format: physicochemical; details: chromatographic, C18; acetonitrile and water with 0.1% formic acid, 5–95 % acetonitrile over 15 min; higher retention time = more hydrophobic
Excerpt: The bulk properties of the macrocycles depend on the functional groups on the side chain and backbone and the ring size. The platform for the tunability in the macrocyclic scaffold aided in the synthesis of molecules with a wide range of properties. The hydrophilicity/hydrophobicity of the macrocycles is an important property, primarily for biological applications. The tunable property of the synthesized macrocycles is attributed to the different retention times in the reverse-phase high-performance liquid chromatogram (RP-HPLC). Hydrophilic compounds elute first through the column, thus lowering the retention time, whereas a higher retention time corresponds to the comparatively hydrophobic compounds. From Figure 3a, it could be inferred that the macrocycles MC1–5 and MC7 are hydrophilic, whereas MC8 and MC6 are hydrophobic, as depicted by the higher retention times. The higher hydrophobicity is due to the aromatic rings, two benzyl groups in MC6 and a naphthyl group in MC8. Another property achieved by one of the macrocycles is the addition of fluorophoric group as the side chain. The resultant fluorescence could be exploited for various photophysical applications, including the development of fluorimetric sensors (Figure 3b).
A Shimadzu (Kyoto, Japan) LC-MS-8045 with a Sprite TARGA C18 column (40 × 2.1 mm, 5 µm) was used for the LC-MS analysis. The spectra were monitored at 254 nm and 210 nm with a positive mode for mass detection. Water and acetonitrile with 0.1% formic acid were used as eluting solvents A and B. […] HRMS was carried out in a Bruker, Maxis Impact and Waters (Billerica, MA, USA) ACQUITY H-CLASS + UPLC/XevoG2 XS QTOF instrument. A 500 MHz Bruker AV III was used to record the ^1H NMR spectrum. The data were analyzed by MestReNova (version 8.1.1). ^1H NMR shifts are reported in units of ppm relative to tetramethyl silane. […]
Figure 3 Properties of the macrocycles. […] Fluorescence spectrum of 10 μM MC8 in methanol upon excitation with a wavelength of 278 nm.

Sequence of human serum albumin (HSA) (P02768 25-609): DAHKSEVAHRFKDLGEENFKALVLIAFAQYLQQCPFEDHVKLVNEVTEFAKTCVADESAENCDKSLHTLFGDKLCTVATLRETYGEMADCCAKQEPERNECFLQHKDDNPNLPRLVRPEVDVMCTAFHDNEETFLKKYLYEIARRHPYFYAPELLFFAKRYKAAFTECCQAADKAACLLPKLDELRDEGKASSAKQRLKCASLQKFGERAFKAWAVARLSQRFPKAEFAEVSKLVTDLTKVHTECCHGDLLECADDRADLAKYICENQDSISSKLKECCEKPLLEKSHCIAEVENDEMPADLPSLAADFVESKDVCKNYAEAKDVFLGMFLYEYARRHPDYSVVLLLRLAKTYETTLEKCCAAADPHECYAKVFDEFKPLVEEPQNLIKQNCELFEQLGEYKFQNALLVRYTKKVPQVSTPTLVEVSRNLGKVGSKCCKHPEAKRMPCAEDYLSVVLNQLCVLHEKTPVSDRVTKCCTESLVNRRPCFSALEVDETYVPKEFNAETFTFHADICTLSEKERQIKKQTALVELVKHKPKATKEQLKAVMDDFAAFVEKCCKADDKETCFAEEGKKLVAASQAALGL
Sequence of bovine serum albumin (BSA) (P02769 25-607): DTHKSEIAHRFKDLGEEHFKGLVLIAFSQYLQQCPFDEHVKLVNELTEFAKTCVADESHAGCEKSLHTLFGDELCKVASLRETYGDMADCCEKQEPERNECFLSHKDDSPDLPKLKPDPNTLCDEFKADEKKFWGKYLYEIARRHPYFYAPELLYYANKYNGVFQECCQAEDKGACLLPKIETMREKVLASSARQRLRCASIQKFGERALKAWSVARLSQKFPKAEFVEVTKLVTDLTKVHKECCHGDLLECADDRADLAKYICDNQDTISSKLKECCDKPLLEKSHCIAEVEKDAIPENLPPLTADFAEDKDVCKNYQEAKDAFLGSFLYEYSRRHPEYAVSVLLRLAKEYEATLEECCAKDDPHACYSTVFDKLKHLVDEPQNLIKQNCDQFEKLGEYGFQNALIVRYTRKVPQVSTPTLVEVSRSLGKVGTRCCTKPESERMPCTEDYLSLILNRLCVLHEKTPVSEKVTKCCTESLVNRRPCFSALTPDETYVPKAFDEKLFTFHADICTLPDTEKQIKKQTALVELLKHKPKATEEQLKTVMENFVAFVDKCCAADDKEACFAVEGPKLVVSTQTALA

Compound	Extent of binding with BSA, in words [1]	Binding Constant, BSA [1] [M⁻¹]	Binding Constant, HSA [2] [M⁻¹]	Extent of interaction with HSA, in words [2]	Hydrophilicity/hydrophobicity inferred from RP-HPLC retention time [3]
CCCN1CCOCc2cn(nn2)CCNCCn2cc(nn2)C1 [MC1]	moderate binding	4600	4200		
CC(C)N1CCOCc2cn(nn2)CCNCCn2cc(nn2)C1 [MC2]	moderate binding	4000	4400		
c1c2nnn1CCNCCn1cc(nn1)CN(C1CCCCC1)CCOC2 [MC3]	moderate binding	4200	3500		
CCN(CC)C(=O)CN1CCOCc2cn(nn2)CCNCCn2cc(nn2)C1 [MC4]	moderate binding	9100	8400	greater extent of interaction	
CN1CCN(C)Cc2cn(nn2)CCNCCn2cc(nn2)C1 [MC5]	negligible binding	1400	3200		
c1ccc(CN2CCN(Cc3ccccc3)Cc3cn(nn3)CCNCCn3cc(nn3)C2)cc1 [MC6]	negligible binding	800	930	lowest	hydrophobic
c1c2nnn1CCNCCn1cc(nn1)COCCCCCCCCCCCCOC2 [MC7]	highest binding	27100	15800	highest interaction and quenching	hydrophilic
c1ccc2cc(CN3CCOCc4cn(nn4)CCNCCn4cc(nn4)COCC3)ccc2c1 [MC8]					hydrophobic
